Data as given in patent publication US4505853A, “Enzyme-resistant immunomodulatory peptides” (Ortho Pharmaceutical Corporation, priority 1983, dated 1985).
Where a SMILES comes first, the peptide text is derived from it. Where no end group is shown, it is not given here. [ ]: non-standard residue; d: D form. The star is where a group is joined. Ac5c = NC1(C(=O)O)CCCC1; For = O=C*

Assays:
[1] = test system: thymopoeitin receptor site (membrane glycoprotein of CEM cells); conditions: 2.3×10^-10 M of 125I-TP, 4 g of binding protein, incubation 12 h
[2] = Enzymatic degradation / half-life in serum; type: in vitro ADME
From the text: (§1) It has been determined that the half-life of thymopentin (thymopoeitin fragment 32-36) in serum is approximately one minute.

[3] = test system: Leucine Amino Peptidase (LAP); experiment: Leucine Amino Peptidase (LAP) Degradation, amino acid analysis; type: in vitro ADME; conditions: Asp, Pro, Val, Tyr, Arg all 0.00
From the text: Leucine Amino Peptidase (LAP) Degradation Asp, 0.00; Pro, 0.00; Val, 0.00; Tyr, 0.00; Arg.

[4] = molecular target: T1, bovine carboxypeptidase A (Bos taurus, UniProt P00730); experiment: Stability of peptides against carboxypeptidase A; type: in vitro ADME; conditions: 1 × 10^-3 M peptide and 0.05 units/ml bovine carboxypeptidase in pH 8.5 borate buffer at 37°
T1 sequence (P00730 111-419): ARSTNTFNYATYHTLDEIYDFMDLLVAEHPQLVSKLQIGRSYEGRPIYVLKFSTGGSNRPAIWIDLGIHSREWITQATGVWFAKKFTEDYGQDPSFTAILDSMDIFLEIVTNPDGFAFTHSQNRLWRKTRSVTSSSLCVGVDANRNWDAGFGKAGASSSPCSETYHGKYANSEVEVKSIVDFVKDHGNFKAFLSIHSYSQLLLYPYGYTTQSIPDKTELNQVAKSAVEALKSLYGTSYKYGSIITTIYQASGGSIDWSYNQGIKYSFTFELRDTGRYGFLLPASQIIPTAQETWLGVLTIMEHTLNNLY
Method: as §1
*1 × 10^-3 M peptide and 0.05 units/ml bovine carboxypeptidase
in pH 8.5 borate buffer at 37°

[5] = Stability of peptides against human serum; type: in vitro ADME; conditions: 1 μg/ml peptide in fresh human serum at 37°
Method: as §1
*1 μg/ml peptide in fresh human serum at 37°

[6] = molecular target: T2, porcine LAPcytosol (Leucine Aminopeptidase) (Sus scrofa, UniProt P28839); experiment: Stability of peptides against leucine aminopeptidase; type: in vitro ADME; conditions: 1 × 10^-3 M peptide and 3 units/ml porcine LAPcytosol in 50 mM Tris pH 8.5 buffer with 5 mM MgCl2 at 37°
T2 sequence (P28839 1-519): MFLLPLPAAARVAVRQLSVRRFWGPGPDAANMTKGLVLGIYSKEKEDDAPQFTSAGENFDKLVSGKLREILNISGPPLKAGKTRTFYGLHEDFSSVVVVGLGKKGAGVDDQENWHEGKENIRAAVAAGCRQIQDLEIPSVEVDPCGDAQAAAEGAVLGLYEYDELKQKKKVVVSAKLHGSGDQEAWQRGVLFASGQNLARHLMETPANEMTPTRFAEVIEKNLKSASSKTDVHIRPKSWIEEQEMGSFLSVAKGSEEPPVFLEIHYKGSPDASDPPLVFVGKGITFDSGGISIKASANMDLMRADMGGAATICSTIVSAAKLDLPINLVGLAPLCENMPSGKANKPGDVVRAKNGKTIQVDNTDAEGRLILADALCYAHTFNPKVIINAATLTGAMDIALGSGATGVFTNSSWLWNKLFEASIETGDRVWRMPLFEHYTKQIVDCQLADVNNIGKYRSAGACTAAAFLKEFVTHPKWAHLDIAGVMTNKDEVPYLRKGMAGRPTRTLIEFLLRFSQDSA
Method: as §1
*1 × 10^-3 M peptide and 3 units/ml porcine LAPcytosol in 50 mM
Tris pH 8.5 buffer with 5 mM MgCl2 at 37°

[7] = test system: Prothymocytes (Thy-1^-); experiment: Induction assay, Thy-1+ T cells; type: cell-based; conditions: B6-lyb-2.1 congenic mouse spleen cells, 3 hrs with inducer; controls without inducer <5% induced cells
Method: (§2) The compounds of the invention were tested following the induction assay procedure set out in Scheid, et al., J. Exp. Med. 147: 1727-1743 (1978) and also following a receptor assay procedure designed to measure displacement of radiolabelled thymopoeitin from a receptor site by the test peptides. A positive result on the induction assay indicates the ability of the test peptide to mimic the ability of thymopoeitin or splenin to induce precursor cells to immunocompetent T cells or T cells and B cells, respectively. A positive result on the receptor assay indicates the ability of the test peptide to bind to the thymopoeitin receptor site and thus to mimic thymopoeitin activity. The subject peptides are positive in the induction assay, while those in which X is ASP or D-ASP are also positive in the receptor assay.
(§3) The peptides of the invention wherein X is ASP or D-ASP are characterized by their ability to induce the selective differentiation of Thy-1^+ T cells (but not Lyb-2^+ B cells). Thy-1 is a differentiation alloantigen present on T cells but not B cells, whereas Lyb-2 is a differentiation alloantigen present on B cells but not T cells. Studies of these peptides in the induction assay in vitro show them to have the same induction specificity as thymopoietin. […]

[8] = test system: pro-Lyb-2 cells; experiment: Induction assay, Lyb-2+ B cells; type: cell-based; conditions: B6-lyb-2.1 congenic mouse spleen cells, 3 hrs with inducer; controls without inducer <5% induced cells
Method: as §2, §3

For “growth hormone: comparison peptide in the receptor assay [reference compound]”, the “displacement of 125I-TP / receptor assay result, in words” value [1] was “no detectable displacement”.
In the case of ubiquitin [reference compound], the “displacement of 125I-TP / receptor assay result, in words” value [1] is reported as “no detectable displacement”.
In the case of “CRF: corticotropin-releasing factor (SEEPPISLDLTFHLLREVLEMARAEQLAQQAHSNRKLMEII; ends and bridges not checked; UniProt P06850 154-194, looked up) [reference compound]”, the “displacement of 125I-TP / receptor assay result, in words” value [1] is reported as “no detectable displacement”.
With C[C@H](N)C(=O)NCC(=O)N[C@H]1CSSC[C@@H](C(=O)O)NC(=O)[C@H](CO)NC(=O)[C@H]([C@@H](C)O)NC(=O)[C@H](Cc2ccccc2)NC(=O)[C@H]([C@@H](C)O)NC(=O)[C@H](CCCCN)NC(=O)[C@H](Cc2c[nH]c3ccccc23)NC(=O)[C@H](Cc2ccccc2)NC(=O)[C@H](Cc2ccccc2)NC(=O)[C@H](CC(N)=O)NC(=O)[C@H](CCCCN)NC1=O [somatostatin, reference compound] the “displacement of 125I-TP / receptor assay result, in words” value [1] was “no detectable displacement”.
With “Ac-RPDQY [N-α-acetyl-ARG-PRO-ASP-GLN-TYR-OH, Nα-acetyl-Arginyl-Prolyl-Aspartyl-Glutaminyl-Tyrosine]” the “displacement of 125I-TP relative to that caused by thymopoietin self-displacement at equivalent concentrations” value [1] was no less than 50%.
For RKEVY [Splenopentin], the “susceptibility to enzymatic degradation” value [2] was “highly susceptible to enzymatic degradation”.
In the case of “ACTH: adrenocorticotropic hormone (SYSMEHFRWGKPVGKKRRPVKVYPNGAEDESAEAFPLEF; Corticotropin; UniProt P01189 138-176, looked up) [reference compound]”, the “displacement of 125I-TP / receptor assay result, in words” value [1] is reported as “no detectable displacement”.
For CNC(=O)[C@H](Cc1ccc(O)cc1)NC(=O)[C@@H](NC(=O)[C@H](CC(=O)O)NC(=O)[C@@H]1CCCN1C(=O)[C@H](CCCNC(=N)N)NC(C)=O)C(C)C [N-α-acetyl-ARG-PRO-ASP-VAL-TYR-NHCH3, Nα-Acetyl-Arginyl-Prolyl-Aspartyl-Valyl-Tyrosine-N-Methylamide] (Ac-RPDVY-NHMe), the “displacement of 125I-TP relative to that caused by thymopoietin self-displacement at equivalent concentrations” value [1] was no less than 50%.
For CC(=O)N[C@@H](CCCNC(=N)N)C(=O)N1CCC[C@H]1C(=O)N[C@@H](CC(=O)O)C(=O)N[C@H](C(=O)N[C@H](Cc1ccc(O)cc1)C(=O)O)C(C)C [IX, Nα-Acetyl-Arginyl-Prolyl-Aspartyl-Valyl-D-Tyrosine] (Ac-RPDV[dY]-OH), the “amino acids liberated by Leucine Amino Peptidase (LAP)” value [3] was “no liberated amino acids were detected”.
In the case of “RPDVY-NH2 [NH2 --Arg--Pro--Asp--Val--Tyr--NH2, Arginyl-Prolyl-Aspartyl-Valyl-Tyrosinamide]”, the “Incubation time required for 50% degradation” value [4] is reported as greater than 450 min, the “Incubation time required for 50% degradation” value [5] is reported as greater than 20 min and the “displacement of 125I-TP relative to that caused by thymopoietin self-displacement at equivalent concentrations” value [1] is reported as no less than 50%.
With “Ac-RPDVY [N--Acetyl-Arg--Pro--Asp--Val--Tyr--OH, Nα-Acetyl-Arginyl-Prolyl-Aspartyl-Valyl-Tyrosine]” the “Incubation time required for 50% degradation” value [5] was 38 min and the “displacement of 125I-TP relative to that caused by thymopoietin self-displacement at equivalent concentrations” value [1] was no less than 50%.
In the case of “RPDVY [NH2 --Arg--Pro--Asp--Val--Tyr--OH]”, the “Incubation time required for 50% degradation” value [6] is reported as 230 min.
For CC(C)[C@H](NC(=O)[C@H](CC(=O)O)NC(=O)[C@@H]1CCCN1C(=O)[C@H](CCCNC(=N)N)NC=O)C(=O)N[C@@H](Cc1ccc(O)cc1)C(=O)O [N-α-formyl-ARG-PRO-ASP-VAL-TYR-OH, N^α -Formyl-Arginyl-Prolyl-Aspartyl-Valyl-Tyrosine] (For-RPDVY-OH), the “displacement of 125I-TP relative to that caused by thymopoietin self-displacement at equivalent concentrations” value [1] was no less than 50%.
With “β-endorphin: comparison peptide in the receptor assay (YGGFMTSEKSQTPLVTLFKNAIIKNAYKKGE; Beta-endorphin; UniProt P01189 237-267, looked up) [reference compound]” the “displacement of 125I-TP / receptor assay result, in words” value [1] was “no detectable displacement”.
For YRKDV [NH2 -TYR-ARG-LYS-ASP-VAL-OH], the “induction of Thy-1^+ cells (T cells)” value [7] was “no induction” and the “induction of Lyb-2.1^+ cells (B cells)” value [8] was “no induction”.
With “Ac-RPDAY [N-α-acetyl-ARG-PRO-ASP-ALA-TYR-OH, Nα-Acetyl-Arginyl-Prolyl-Aspartyl-Alanyl-Tyrosine]” the “displacement of 125I-TP relative to that caused by thymopoietin self-displacement at equivalent concentrations” value [1] was no less than 50%.
With “Ac-RPDVY-NH2 [N--Acetyl-Arg--Pro--Asp--Val--Tyr--NH2, N^α -acetyl-Arginyl-Prolyl-Aspartyl-Valyl-Tyrosine amide]” the “Incubation time required for 50% degradation” value [6] was greater than 1400 min, the “Incubation time required for 50% degradation” value [4] was greater than 1500 min and the “Degradation in human serum, in words” value ([5]; at 30 minutes) was “no degradation”. The “displacement of 125I-TP relative to that caused by thymopoietin self-displacement at equivalent concentrations” value [1] was no less than 50%.
In the case of CC(C)[C@H](NC(=O)[C@H](CC(=O)O)NC(=O)C1(NC(=O)[C@@H](N)CCCNC(=N)N)CCCC1)C(=O)N[C@@H](Cc1ccc(O)cc1)C(=O)O [NH2 --Arg--Cle--Asp--Val--Tyr--OH, Arginyl-Cycloleucyl-Aspartyl-Valyl-Tyrosine] (H-R[Ac5c]DVY-OH), the “Incubation time required for 50% degradation” value [6] is reported as greater than 1400 min.
With “RKDVY [NH2 --Arg--Lys--Asp--Val--Tyr--OH, reference compound]” the “Incubation time required for 50% degradation” value [6] was 15 min, the “Incubation time required for 50% degradation” value [4] was 18 min and the “Incubation time required for 50% degradation” value [5] was 1.5 min. The half-life in serum ([2]; serum) was “approximately one”.
In the case of “Ac-RPDEY [N-α-acetyl-ARG-PRO-ASP-GLU-TYR-OH, N^α -Acetyl-Arginyl-Prolyl-Aspartyl-Glutamyl-Tyrosine]”, the “displacement of 125I-TP relative to that caused by thymopoietin self-displacement at equivalent concentrations” value [1] is reported as no less than 50%.
